As usually defined, the IC50 is the concentration that inhibits the measured activity by half.

Series [1] can be described thus: Cytotoxicity against GAG-deficient CHO-745 cells assessed as reduction in cell viability at 10 uM incubated for 48 hrs by resazurin reagent based fluorescence assay. The arrangement: species or system Cricetulus griseus. Conditions: chinese hamster, cho-745, 48 h. For orientation: The colour change of resazurin is a common sign of viable cells or microbes.
In series [2] the test system is CHO. Briefly: Cytotoxicity against CHO cells overexpressing 3-O-sulfotransferase 4 assessed as reduction in cell viability at 10 uM incubated for 48 hrs by resazurin reagent based fluorescence assay. Further details: species or system Cricetulus griseus. Conditions: chinese hamster.
In series [3] the test system is CHO. Kind of series: Cytotoxicity against CHO cells overexpressing 3-O-sulfotransferase 1 assessed as reduction in cell viability at 10 uM incubated for 48 hrs by resazurin reagent based fluorescence assay. Further details: species or system Cricetulus griseus. Conditions: chinese hamster.
Series [4] has as its system A549. Briefly: Cytotoxicity against human A549 cells assessed as reduction in cell viability at 10 uM incubated for 48 hrs by resazurin reagent based fluorescence assay. Format: functional.
Series [5] deals with HT-29. Briefly: Cytotoxicity against human HT-29 cells assessed as reduction in cell viability incubated for 48 hrs by resazurin reagent based fluorescence assay. The series is classed as functional. Conditions: HT-29, 48 h.
Series [6] concerns HCT-116. Kind of series: Cytotoxicity against human HCT-116 cells assessed as reduction in cell viability incubated for 48 hrs by resazurin reagent based fluorescence assay. Conditions: HCT-116, 48 h. The series is classed as functional.
The subject of series [7] is CHO-K1. Briefly: Cytotoxicity against CHO-K1 cells assessed as reduction in cell viability at 10 uM incubated for 48 hrs by resazurin reagent based fluorescence assay. Further details: species or system Cricetulus griseus. Conditions: chinese hamster, cho-k1, 48 h.
Series [8] concerns CHO. Kind of series: Cytotoxicity against CHO cells overexpressing 3-O-sulfotransferase 2 assessed as reduction in cell viability at 10 uM incubated for 48 hrs by resazurin reagent based fluorescence assay. The arrangement: species or system Cricetulus griseus. Conditions: chinese hamster.
Series [9] has as its system A549. Briefly: Cytotoxicity against human A549 cells assessed as reduction in cell viability incubated for 48 hrs by resazurin reagent based fluorescence assay. Conditions: A549, 48 h. The series is classed as functional.
The subject of series [10] is CHO. Kind of series: Cytotoxicity against CHO cells overexpressing 3-O-sulfotransferase 3 assessed as reduction in cell viability at 10 uM incubated for 48 hrs by resazurin reagent based fluorescence assay. Further details: species or system Cricetulus griseus. Conditions: chinese hamster.
The test system of series [11] is NCI-H1299. Briefly: Cytotoxicity against human NCI-H1299 cells assessed as reduction in cell viability incubated for 48 hrs by resazurin reagent based fluorescence assay. Conditions: NCI-H1299, 48 h. The series is classed as functional.
Series [12] can be described thus: Cytotoxicity against heparan sulfate-deficient CHO-677 cells assessed as reduction in cell viability at 10 uM incubated for 48 hrs by resazurin reagent based fluorescence assay. The arrangement: species or system Cricetulus griseus. Conditions: chinese hamster, cho-677, 48 h.
The nature of series [13]: Drug localization in golgi bodies of human A549 cells at 10 uM measured upto 12 hrs by Golgin-97 and DAPI staining based laser scanning confocal microscopic analysis. Conditions: a549, 12 h. The series is classed as ADME, subcellular, Golgi body.
Series [14] can be described thus: Drug localization in golgi vesicles of human A549 cells at 10 uM incubated for 4 hrs by Golgin-97 and DAPI staining based laser scanning confocal microscopic analysis. Format: ADME, subcellular, Golgi body. Conditions: a549, 4 h.
Series [15] can be described thus: Drug localization in golgi bodies of human HCT-116 cells at 10 uM measured upto 12 hrs by Golgin-97 and DAPI staining based laser scanning confocal microscopic analysis. Format: ADME, subcellular, Golgi body. Conditions: hct-116, 12 h.

Activity calls are given as the source filed them. The rule behind the calls is not given here. Bounds are passed on as bounds.

`COc1ccc(/C=C/c2cc(/C=C/c3ccc(OC)c(OC)c3)nc(OCCCCSC(N(C)C)=[N+](C)C)n2)cc1OC.[Br-]`: the Activity entry in [1], in series [2], in [3], in [7], in series [8] and in [10] was “Non-Toxic” throughout. Moreover, the Activity result in [12] was “Non-Toxic”. In addition, in series [4], the outcome was Active. Moreover, the IC50 is 4100 nM in [5], 3890 nM in series [6], 9710 nM in series [9] and 5810 nM in series [11].

For the molecule `Br.COc1ccc(/C=C/c2cc(/C=C/c3ccc(OC)cc3)nc(OCCCCCCSC(=N)N)n2)cc1`, the Drug uptake entry in [13], in series [14] and in series [15] was “Active” in each case. The half-inhibitory concentration (IC50) in series [5] was found to be 2140 nM; in series [6] it was 1980 nM; in series [9], 1970 nM; in [11], 3690 nM.

As for `Br.COc1ccc(/C=C/c2cc(/C=C/c3ccc(OC)c(OC)c3)nc(OCCCCSC(=N)N)n2)cc1OC`, the Activity result in [1], in [2], in series [3], in [7], in [8] and in series [10] was “Toxic” each time. Moreover, the Activity result in series [12] is “Toxic”. The result in [4] was Active. Also, the IC50 in series [5] was found to be 610 nM; in series [6], 1860 nM; in series [9], 2360 nM; in series [11] it was 1530 nM.

Consider `COc1ccc(/C=C/c2cc(/C=C/c3ccc(OC)cc3)nc(OCCCCSC(N(C)C)=[N+](C)C)n2)cc1.[Br-]`, for which the Drug uptake result in series [13] and in series [15] was “Not Active” in each case. For the same molecule, the Activity result in series [1], in series [2], in series [3], in [7], in series [8] and in series [10] was “Non-Toxic” throughout. Moreover, the Activity result in series [12] is “Non-Toxic”. Moreover, in [4], the outcome was Active. In addition, the IC50 in series [5] is 5970 nM; in [6], 3000 nM; in series [9], 2260 nM; in [11] it was 7490 nM.

Take `Br.COc1ccc(/C=C/c2cc(/C=C/c3ccc(OC)cc3)nc(OCCCCCSC(=N)N)n2)cc1`: the Drug uptake result in series [13], in series [14] and in [15] was “Active” throughout. Further, the IC50 in [5] was determined as 2030 nM; in [6] it was 1930 nM; in [9] it was 1970 nM; in series [11], 2960 nM.

In the case of `COc1cc(/C=C/c2cc(/C=C/c3cc(OC)c(OC)c(OC)c3)nc(OCCCCCSC(=N)N)n2)cc(OC)c1OC`, the IC50 came out at 1860 nM in [5], 2080 nM in series [6], 2880 nM in series [9] and 4130 nM in series [11].

In the case of `COc1cc(/C=C/c2cc(/C=C/c3cc(OC)c(OC)c(OC)c3)nc(OCCCCCCBr)n2)cc(OC)c1OC`, the IC50 in series [5], in series [6], in [9] and in [11] was over 20000 nM in each case.

Regarding `COc1ccc(/C=C/c2cc(/C=C/c3ccc(OC)c(OC)c3)nc(OCCCCBr)n2)cc1OC`, the Activity result in series [1], in series [2], in series [3], in series [7], in series [8] and in series [10] was “Toxic” in each case. Moreover, the Activity result in series [12] was “Toxic”. Besides, in [4], the outcome was Active. The IC50 in series [5], in [6], in series [9] and in [11] was over 20000 nM in each case.

For the molecule `COc1ccc(/C=C/c2cc(/C=C/c3ccc(OC)cc3)nc(OCCCCCCBr)n2)cc1`, the IC50 in series [5], in series [6], in series [9] and in series [11] was over 20000 nM in each case.

Values taken from ChEMBL document CHEMBL4715755, “Isothiouronium modification empowers pyrimidine-substituted curcumin analogs potent cytotoxicity and Golgi localization” (Eur J Med Chem, 2016).
